Patent publication US20070128669A1, “Serum-free expansion of cells in culture” (Institute for Chemical Genomics, priority 2005, published 2007)

Legend:
[1] = system: TCF/β-catenin reporter in NIH-3T3 cells; assay: TOPFLASH/FOPFLASH TCF/β-catenin reporter assay in NIH-3T3 cells; format: cell-based
Description: (§1) NIH-3T3 cells (wt), NIH-3T3 CBP(+/−) cells and NIH-3T3 p300(+/−) cells were transfected as described in (26). Briefly, cells were transfected with TOPFLASH or FOPFLASH, using Fugene6 (Roche Molecular Biochemicals). Transfection efficiencies were normalized with pRL-null luciferase plasmid. Luciferase assays were performed with the DUAL-Luciferase Reporter Assay System (Promega).
as §1, with “In certain experiments, NIH-3T3 cells” for “NIH-3T3 cells”
The Wnt/β-catenin reporter constructs TOPFLASH and FOPFLASH in wild-type NIH-3T3 cells (wt), NIH-3T3 CBP(+/−) cells and NIH-3T3 p300(+/−) cells were used to determine whether IQ-1, by targeting the PR72/130 subunit with PP2A, was selectively increasing β-catenin's usage of CBP as a coactivator at the expense of p300, thereby maintaining the ESCs in the undifferentiated state (FIG. 4A). A point mutant constitutively translocating β-catenin (pt-mut β-cat) was used to stimulate reporter activity (28).

[2] = system: Murine ESCs (D3 ES); assay: Alkaline phosphatase activity of ESCs (compound screen); format: cell-based, mouse; settings: media containing 15% FCS, without exogenous LIF
Description: Cell culture. ESCs, D3ES (ATCC CRL-1934) were maintained on Mitomycin C treated MEFs in mouse ESC medium containing DMEM (Invitrogen) supplemented with 15% FBS (Invitrogen), 0.1 mM MEM nonessential amino acids (Invitrogen), 0.1 mM 2-mercaptoethanol (Sigma), 2 mM L-glutamine (Invitrogen) and 1,000 U/ml LIF (CHEMICON). To remove MEFs, cells were collected by trypsinization and plated on gelatin-coated culture dishes for 20 min. Non-adherent cells consisting mainly of ESCs were replated on gelatin-coated culture dishes again. Non-adherent cells were used for further experiments. P19 cells were cultured according to conditions recommended by the ATCC. Cells were incubated at 37° C. in a 5% CO2 incubator. Purified Wnt3a was purchased (R&D Systems).
Compound Screens. For the small molecule screen, alkaline phosphatase activity of ESCs was determined. ESCs were plated into 96-well tissue culture plates (Falcon) at a density of 316-1,000 cells per well in ESC medium without LIF. Compounds were added at a final concentration of 4 μg/ml. Cells were treated with compounds for 7 days and test cell populations were washed with PBS and 100 μl of p-nitrophenyl phosphate solution (MOSS Inc.) was added. The absorbance at 405 nm was measured by spectrophotometer (Spectramax, Molecular Devices).

[3] = stimulated with pt-mut β-catenin

Alkaline Phosphatase (AP) activity [2]: dose dependently increased AP activity
Compound: CC(=O)c1ccc(NN=C(C(N)=O)C2=NC(C)(C)Cc3ccccc32)cc1 [IQ-1]
Fopflash reporter activity ([1]; NIH-3T3 cells): no effect | TOPFLASH activity, NIH-3T3 CBP (+/−) cells [1, 3]: did not affect TOPFLASH or FOPFLASH activity | TOPFLASH activity, wt NIH-3T3 cells [1, 3]: did not affect TOPFLASH or FOPFLASH activity | increase in TOPFLASH activity, NIH-3T3 p300 (+/−) cells [1, 3]: 2-3 fold
